Data published in patent US20050288307A1, “Anti-viral compounds” (priority 2002, published 2005).
Read-outs that look alike come from different tables or passages of the source.

What was measured:
CDK7/cyclin H = CDK7/cyclin H (Homo sapiens, UniProt P50613); test: CDK7 assay (CTD peptide substrate); type: biochemical
Method: (§1) CTD peptide substrate (biotinyl-Ahx-(Tyr-Ser-Pro-Thr-Ser-Pro-Ser)4-NH2; 1-2 mg/mL) and recombinant human CDK7/cyclin H, CDK9/cyclin T1, or CDK9/cyclin K (0.5-2 μg) were incubated for 45 min at 30° C. in the presence of varying amounts of test compound in 20 mM MOPS pH 7.2, 25 mM β-glycerophosphate, 5 mM EGTA, 1 mM DTT, 1 mM sodium vanadate, 15 mM MgCl2, and 100 μM ATP (containing a trace amount of ^32PγATP) in a total volume of 25 μL in a 96-well microtiter plate. The reaction was stopped by placing the plate on ice for 2 min. Avidin (50 μg) was added to each well, and the plate was incubated at room temp for 30 min. The samples were transferred to a 96-well P81 filter plate, and washed (4×200 μL per well) with 75 mM phosphoric acid. Microscint 40 scintillation liquid (50 μL) was added to each well, and the amount of ^32P incorporation for each sample was measured using a Packard Topcount microplate scintillation counter.

CDK9/cyclin T1 = CDK9/cyclin T1 (Homo sapiens, UniProt P50750); test: CDK9 assay (CTD peptide substrate); type: biochemical; details: Table 3; read-out: Average IC50 CDK9 cyclin T1
Method: as §1

CDK4/Cyclin D1 = CDK4/Cyclin D1 (Homo sapiens, UniProt P11802); test: CDK4/cyclin D1 kinase assay (GST-Rb phosphorylation); type: biochemical; details: Table 3; read-out: Average IC50 CDK4 cyclin D1
CDK1/Cyclin B = CDK1/Cyclin B (Homo sapiens, UniProt P06493); test: CDK1/cyclin B kinase assay (GST-Rb phosphorylation);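 also: Enzyme: His-tagged CDK1/Cyclin B co-expressed in baculovirus-infected Sf9 insect cells, purified via metal-chelate chromatography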
CDK2/Cyclin E = target: T1, CDK2/Cyclin E (Homo sapiens, UniProt P24941); test: CDK2/cyclin E kinase assay (GST-Rb phosphorylation); type: biochemical; details: Table 3; read-out: Average IC50 CDK2 cyclin E1;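 also: enzyme source: His-tagged CDK2/cyclin E complex co-expressed recombinantly in Sf9 insect cells using baculovirus constructs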
T1 construct: His; made in house; host or cells: Sf9 insect cells (baculovirus)
Method: His-tagged CDK2/Cyclin E and CDK1/Cyclin B may be co-expressed and PKCα singularly expressed in Sf 9 insect cells infected with the appropriate baculovirus constructs. The cells are harvested two days after infection by low speed centrifugation and the proteins purified from the insect cell pellets by Metal-chelate chromatography. Briefly, the insect cell pellet is lysed in Buffer A (10 mM Tris-HCl, pH 8.0, 150 mM NaCl, 0.02% NP40 and 5 mM β-marcaptoethanol, 1 mM NaF. 1 mM Na3VO4 and Protease Inhibitors Coctail (Sigma) containing AEBSF, pepstatin A, E 64, bestatin, leupeptin) by sonication. The soluble fraction is cleared by centrifugation and loaded onto Ni-NTA-Agarose (Quiagen). Non bound proteins were washed off with 300 mM NaCl, 5-15 mM Imidazole in Buffer A and the bound proteins eluted with 250 mM Imidazole in Buffer A. The purified proteins are extensively dialyzed against Storage buffer (20 mM HEPES pH 7.4, 50 mM NaCl, 2 mM DTT, 1 mM EDTA, 1 mM EGTA, 0.02% NP40, 10% v/v Glycerol) aliquoted and stored at −70° C.

[1] = Table 3, read-out: Average IC50 CDK7 cyclin H

CDK4/Cyclin D1, sequence (P11802 whole entry, species assumed): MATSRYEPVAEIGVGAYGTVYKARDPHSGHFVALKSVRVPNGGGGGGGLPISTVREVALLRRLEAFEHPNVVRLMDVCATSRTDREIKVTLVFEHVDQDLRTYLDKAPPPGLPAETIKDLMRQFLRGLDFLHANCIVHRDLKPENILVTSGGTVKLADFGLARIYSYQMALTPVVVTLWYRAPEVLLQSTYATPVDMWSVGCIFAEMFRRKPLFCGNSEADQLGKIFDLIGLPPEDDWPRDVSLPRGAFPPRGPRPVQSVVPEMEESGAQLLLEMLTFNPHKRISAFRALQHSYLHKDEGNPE
CDK4/Cyclin D1, sequence (P24385 whole entry partner, species assumed): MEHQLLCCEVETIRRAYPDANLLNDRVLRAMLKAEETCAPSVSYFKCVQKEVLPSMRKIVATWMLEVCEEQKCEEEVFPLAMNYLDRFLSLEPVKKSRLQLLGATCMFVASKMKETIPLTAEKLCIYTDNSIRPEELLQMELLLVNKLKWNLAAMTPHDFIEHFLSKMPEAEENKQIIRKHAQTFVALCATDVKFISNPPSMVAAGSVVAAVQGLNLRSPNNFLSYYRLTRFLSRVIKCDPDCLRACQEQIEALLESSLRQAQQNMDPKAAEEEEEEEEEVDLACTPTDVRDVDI
CDK7/cyclin H, sequence (P50613 whole entry): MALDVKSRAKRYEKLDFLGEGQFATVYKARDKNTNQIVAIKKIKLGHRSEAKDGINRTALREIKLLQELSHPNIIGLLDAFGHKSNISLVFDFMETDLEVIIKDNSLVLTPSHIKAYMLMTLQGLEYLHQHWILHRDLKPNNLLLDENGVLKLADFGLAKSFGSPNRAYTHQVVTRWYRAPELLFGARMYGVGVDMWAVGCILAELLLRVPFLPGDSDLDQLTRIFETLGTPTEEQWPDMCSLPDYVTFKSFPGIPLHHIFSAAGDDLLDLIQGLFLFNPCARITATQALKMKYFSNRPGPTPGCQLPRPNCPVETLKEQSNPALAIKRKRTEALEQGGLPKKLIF
CDK7/cyclin H, sequence (P51946 whole entry partner): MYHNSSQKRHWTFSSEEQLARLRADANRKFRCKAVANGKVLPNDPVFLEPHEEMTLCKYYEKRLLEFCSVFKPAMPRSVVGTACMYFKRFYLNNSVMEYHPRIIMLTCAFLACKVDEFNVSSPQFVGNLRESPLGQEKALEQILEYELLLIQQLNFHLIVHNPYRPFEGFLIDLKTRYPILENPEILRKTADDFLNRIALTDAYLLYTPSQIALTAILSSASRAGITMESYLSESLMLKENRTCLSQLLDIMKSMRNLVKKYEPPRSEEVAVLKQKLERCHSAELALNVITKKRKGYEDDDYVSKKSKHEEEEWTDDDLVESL
CDK1/Cyclin B, sequence (P06493 whole entry, species assumed): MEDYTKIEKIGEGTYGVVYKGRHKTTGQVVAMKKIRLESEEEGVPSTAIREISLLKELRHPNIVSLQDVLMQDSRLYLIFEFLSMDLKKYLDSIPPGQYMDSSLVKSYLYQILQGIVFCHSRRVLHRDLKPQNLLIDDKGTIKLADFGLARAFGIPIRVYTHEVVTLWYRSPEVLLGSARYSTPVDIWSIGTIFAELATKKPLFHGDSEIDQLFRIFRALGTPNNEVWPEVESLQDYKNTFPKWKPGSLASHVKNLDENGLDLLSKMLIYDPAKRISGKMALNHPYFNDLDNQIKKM
CDK1/Cyclin B, sequence (P14635 whole entry partner, species assumed): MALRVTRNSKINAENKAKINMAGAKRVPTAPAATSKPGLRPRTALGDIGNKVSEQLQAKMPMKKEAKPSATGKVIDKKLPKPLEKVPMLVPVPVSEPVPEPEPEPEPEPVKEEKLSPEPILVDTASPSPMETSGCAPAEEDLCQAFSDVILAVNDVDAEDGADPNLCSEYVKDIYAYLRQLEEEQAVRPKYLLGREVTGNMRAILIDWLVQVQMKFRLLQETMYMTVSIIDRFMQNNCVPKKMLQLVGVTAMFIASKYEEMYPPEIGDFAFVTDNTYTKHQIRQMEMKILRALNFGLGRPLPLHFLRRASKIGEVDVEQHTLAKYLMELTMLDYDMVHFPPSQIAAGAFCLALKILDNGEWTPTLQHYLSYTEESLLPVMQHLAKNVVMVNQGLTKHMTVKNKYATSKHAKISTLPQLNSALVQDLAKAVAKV
CDK9/cyclin T1, sequence (P50750 whole entry): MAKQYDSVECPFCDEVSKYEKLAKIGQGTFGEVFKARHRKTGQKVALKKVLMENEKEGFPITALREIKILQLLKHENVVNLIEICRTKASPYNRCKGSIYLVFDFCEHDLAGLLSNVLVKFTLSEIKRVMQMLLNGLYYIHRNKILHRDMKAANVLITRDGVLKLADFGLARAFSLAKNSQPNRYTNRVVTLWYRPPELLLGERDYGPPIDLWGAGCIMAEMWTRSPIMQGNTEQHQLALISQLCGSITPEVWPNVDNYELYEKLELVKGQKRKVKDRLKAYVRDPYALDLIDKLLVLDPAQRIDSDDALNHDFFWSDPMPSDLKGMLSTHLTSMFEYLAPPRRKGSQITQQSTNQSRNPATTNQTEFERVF
CDK9/cyclin T1, sequence (O60563 whole entry partner): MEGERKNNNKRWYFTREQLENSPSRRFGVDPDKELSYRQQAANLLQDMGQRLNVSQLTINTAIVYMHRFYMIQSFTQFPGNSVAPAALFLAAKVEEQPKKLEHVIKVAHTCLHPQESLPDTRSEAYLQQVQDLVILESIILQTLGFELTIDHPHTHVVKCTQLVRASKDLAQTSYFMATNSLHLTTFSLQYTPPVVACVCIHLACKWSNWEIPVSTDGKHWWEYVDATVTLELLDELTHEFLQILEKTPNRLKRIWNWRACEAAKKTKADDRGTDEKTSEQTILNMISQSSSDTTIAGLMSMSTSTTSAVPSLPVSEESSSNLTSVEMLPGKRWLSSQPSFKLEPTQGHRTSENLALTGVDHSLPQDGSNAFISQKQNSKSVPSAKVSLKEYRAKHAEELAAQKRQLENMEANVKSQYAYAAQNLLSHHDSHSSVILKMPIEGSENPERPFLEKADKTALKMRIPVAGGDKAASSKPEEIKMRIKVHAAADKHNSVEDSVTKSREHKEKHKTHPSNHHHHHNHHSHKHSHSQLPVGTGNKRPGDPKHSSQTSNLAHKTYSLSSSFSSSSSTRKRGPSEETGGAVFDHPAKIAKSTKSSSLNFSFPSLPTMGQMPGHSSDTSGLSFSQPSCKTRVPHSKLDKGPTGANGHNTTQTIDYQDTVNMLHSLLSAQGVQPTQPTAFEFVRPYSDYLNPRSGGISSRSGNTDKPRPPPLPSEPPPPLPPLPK

Row | SMILES | IC50 (CDK7/cyclin H; [1]) [nM] | IC50 (CDK9/cyclin T1) [nM] | IC50 (CDK4/Cyclin D1) [nM] | IC50 (CDK1/Cyclin B) [nM] | IC50 (CDK7/cyclin H; Table 4, read-out: Kinase Inhibition IC50 CDK7-cyclin H) [nM] | IC50 (CDK2/Cyclin E) [nM]
1 | Cc1nc(C)c(-c2ccnc(Nc3ccc([N+](C)(C)C)cc3)n2)s1 [Compound 104, {4-[4-(2,4-Dimethyl-thiazol-5-yl)-pyrimidin-2-ylamino]-phenyl}-trimethyl-ammonium] | 390 | 140 | – | – | – | –
2 | COc1ccc(Nc2nccc(-c3sc(=O)n(C)c3C)n2)cc1 [Compound 157, 5-[2-(4-Methoxy-phenylamino)-pyrimidin-4-yl]-3,4-dimethyl-3H-thiazol-2-one] | – | – | – | 780 | 2000 | –
3 | Cc1nc(C)c(-c2ccnc(Nc3ccc(Cc4ccncc4)cc3)n2)s1 [Compound 101, [4-(2,4-Dimethyl-thiazol-5-yl)-pyrimidin-2-yl]-(4-pyridin-4-ylmethyl-phenyl)-amine] | – | – | 1100 | – | – | 690
4 | COC(=O)c1ccc(Nc2nccc(-c3sc(C)nc3C)n2)cc1 [Compound 37, 4-[4-(2,4-Dimethyl-thiazol-5-yl)-pyrimidin-2-ylamino]-benzoic acid methyl ester] | – | – | 17000 | 38000 | – | 7500
5 | Cc1nc(C)c(-c2ccnc(Nc3ccc(N(C)C)c([N+](=O)[O-])c3)n2)s1 [Compound 127, N^4-[4-(2,4-Dimethyl-thiazol-5-yl)-pyrimidin-2-yl]-N^1,N^1-dimethyl-2-nitro-benzene-1,4-diamine] | 1500 | – | – | 130 | – | –
6 | COc1ccc(Nc2nccc(-c3sc(C)nc3C)n2)cc1Cl [Compound 39, (3-Chloro-4-methoxy-phenyl)-[4-(2,4-dimethyl-thiazol-5-yl)-pyrimidin-2-yl]-amine] | – | – | > 50000 | 40000 | – | 5600
7 | CCN(CC)CCOc1ccc(Nc2nccc(-c3sc(C)nc3C)n2)cc1 [Compound 122, [4-(2-Diethylamino-ethoxy)-phenyl]-[4-(2,4-dimethyl-thiazol-5-yl)-pyrimidin-2-yl]-amine] | 440 | – | – | – | – | –

The remaining lines, values ahead:

Row | IC50 (CDK7/cyclin H; [1]) [nM] | IC50 (CDK9/cyclin T1) [nM] | IC50 (CDK4/Cyclin D1) [nM] | IC50 (CDK1/Cyclin B) [nM] | IC50 (CDK7/cyclin H; Table 4, read-out: Kinase Inhibition IC50 CDK7-cyclin H) [nM] | IC50 (CDK2/Cyclin E) [nM] | SMILES
8 | – | 55 | 380 | 14000 | – | – | Cc1nc(C)c(-c2ccnc(Nc3ccc(O)c([N+](=O)[O-])c3)n2)s1 [Compound 32, 4-[4-(2,4-Dimethyl-thiazol-5-yl)-pyrimidin-2-ylamino]-2-nitro-phenol]
9 | 590 | – | – | – | – | – | Cc1nc(N)sc1-c1ccnc(Nc2cccc(I)c2)n1 [Compound 113, [4-(2-Amino-4-methyl-thiazol-5-yl)-pyrimidin-2-yl]-(3-iodo-phenyl)-amine]
10 | – | – | 1600 | – | – | 1000 | Cc1nc(N)sc1-c1ccnc(Nc2ccc(Br)cc2)n1 [Compound 120, [4-(2-Amino-4-methyl-thiazol-5-yl)-pyrimidin-2-yl]-(4-bromo-phenyl)-amine]
11 | – | – | > 50000 | – | – | 180 | Cc1nc(N)sc1-c1ccnc(Nc2ccc([N+](=O)[O-])cc2)n1 [Compound 151, [4-(2-Amino-4-methyl-thiazol-5-yl)-pyrimidin-2-yl]-(4-nitro-phenyl)-amine]
12 | – | – | 4000 | – | – | 1300 | Cc1nc(N(C)C)sc1-c1ccnc(Nc2ccc(F)cc2)n1 [Compound 142, [4-(2-Dimethylamino-4-methyl-thiazol-5-yl)-pyrimidin-2-yl]-(4-fluoro-phenyl)-amine]
13 | – | – | 4800 | – | – | 3900 | Cc1nc(N(C)C)sc1-c1ccnc(Nc2ccc(Cl)cc2)n1 [Compound 141, (4-Chloro-phenyl)-[4-(2-dimethylamino-4-methyl-thiazol-5-yl)-pyrimidin-2-yl]-amine]
14 | – | – | > 50000 | > 50000 | – | 8000 | Cc1nc(C)c(-c2ccnc(Nc3ccc(C#N)cc3)n2)s1 [Compound 35, 4-[4-(2,4-Dimethyl-thiazol-5-yl)-pyrimidin-2-ylamino]-benzonitrile]
15 | – | – | 5800 | – | – | 680 | Cc1nc(N)sc1-c1ccnc(Nc2ccc(C(F)(F)F)cc2)n1 [Compound 110, [4-(2-Amino-4-methyl-thiazol-5-yl)-pyrimidin-2-yl]-(4-trifluoromethyl-phenyl)-amine]
16 | – | – | 71 | – | – | 18 | Cc1nc(N)sc1-c1ccnc(Nc2cccc(Cl)c2)n1 [Compound 112, [4-(2-Amino-4-methyl-thiazol-5-yl)-pyrimidin-2-yl]-(3-chloro-phenyl)-amine]
